Assay results as given in US20250213463A1, “TOPICAL COMPOSITION AND USES THEREOF” (COTY INC., priority 2021, published 2025).

Test system: Normal human primary fibroblasts
Assay: Fibronectin release by UV-irradiated normal human primary fibroblasts (Human Magnetic Luminex Assay)
Format: cell-based
Protocol: Normal human primary fibroblasts were seeded in culture well plates at 200,000 cells/cm^2 with DMEM (Dulbecco's Modified Eagle Medium) culture medium. 24 hours later, culture medium was removed, cells were rinsed with PBS (Phosphate Buffered Saline), and fresh PBS was applied to the cells. Cells were then exposed to UV irradiation (from 300 to 400 nm) for a time to cause physical and/or chemical UV-induced change, without exposure to active ingredients. Immediately after irradiation, PBS was removed and the active ingredients creatine, palmitoylTripeptide-5 (Lys-Val-Lys) and bifida ferment lysate diluted in culture medium were applied for 72 hours. Cells were incubated at +37° C. with 5% CO2.
Quantification of fibronectin release was performed by using Human Magnetic Luminex Assays (ref: LXSAHM-03) according to the protocol described by the supplier. Results were expressed in pg/ml.

For `CN(CC(=O)O)C(=N)N` [Creatine], the “effect on fibronectin production/levels (in words)” value (UV-irradiated fibroblasts, 72 hours treatment, FIG. 1) was “does not appear to exert a positive impact”.
For palmitoylTripeptide-5 (Lys-Val-Lys), the “increase in fibronectin production over either no treatment or creatine treatment alone” value (UV-irradiated fibroblasts, 72 hours treatment) was 36.9% and the “fibronectin production in irradiated cells” value (fibroblasts exposed to UV (300 to 400 nm), then actives in culture medium for 72 hours) was 550K.
